From ChEMBL document CHEMBL1126396 (Bioorg Med Chem Lett, 1992)

Tests used:
Somatostatin receptor [1] = assay: Radioligand binding studies on rat cortex membranes using 125 I-Tyrs-octreotide as ligand was determined
Somatostatin receptor [2] = assay: Inhibitory activity against Somatostatin receptor in rat cortex membrane using 125 I-Tyrs-octreotide as radioligand; assay type: cell membranes

IC50 (Somatostatin receptor [1]): 23 µM
Log Ki (Somatostatin receptor [2]): -4.73
SMILES: NCCCCCOCC1OC(OCCc2c[nH]c3ccccc23)C(OCc2ccccc2)C1OCc1ccccc1 (configuration not stated)
